According to paper PMC11748363, “Antimicrobial and Antiproliferative Properties of 2‐Phenyl‐N‐(Pyridin‐2‐yl)acetamides” (Chemical Biology & Drug Design, 2025):
Converted amounts (≈) assume the structure as drawn. Like-named read-outs stand apart in the source and are kept apart here.

Columns and labels:
[1] = system: Enterococcus faecalis CCM 4224, ATCC 29212; experiment: Antibacterial microdilution broth MIC, EF; assay type: cell-based
[2] = system: Candida albicans CCM 8320, ATCC 24433; experiment: Antifungal microdilution broth MIC, CA
[3] = system: Candida parapsilosis CCM 8260, ATCC 22019; experiment: Antifungal microdilution broth MIC, CP; conditions: Lodderomyces parapsilosis
[4] = system: Aspergillus fumigatus ATCC 204305; experiment: Antifungal microdilution broth MIC, AF
[5] = system: Candida krusei CCM 8271, ATCC 6258; experiment: Antifungal microdilution broth MIC, CK; conditions: Pichia kudriavzevii
[6] = system: Mycolicibacterium smegmatis DSM 43465; experiment: Antimycobacterial microdilution broth MIC (resazurin), M. smegmatis; assay type: cell-based; conditions: DSM43465, read-out: MIC M. smegmatis
[7] = system: Staphylococcus aureus CCM 4223, ATCC 29213; experiment: Antibacterial microdilution broth MIC, SA; assay type: cell-based; conditions: Staphylococcus aureus
[8] = system: Staphylococcus epidermidis CCM 4418, ATCC 12228; experiment: Antibacterial microdilution broth MIC, SE; assay type: cell-based
[9] = system: Lichtheimia corymbifera CCM 8077; experiment: Antifungal microdilution broth MIC, LC
[10] = system: Pseudomonas aeruginosa CCM 3955, ATCC 27853; experiment: Antibacterial microdilution broth MIC, PA; assay type: cell-based
[11] = system: Candida tropicalis CCM 8264, ATCC 750; experiment: Antifungal microdilution broth MIC, CT
[12] = system: Escherichia coli CCM 3954, ATCC 25922; experiment: Antibacterial microdilution broth MIC, EC; assay type: cell-based
[13] = system: Mycolicibacterium aurum DSM 43999; experiment: Antimycobacterial microdilution broth MIC (resazurin), M. aurum; assay type: cell-based; conditions: DSM43999, read-out: MIC M. aurum
[14] = system: Klebsiella pneumoniae CCM 4415, ATCC 10031; experiment: Antibacterial microdilution broth MIC, KP
HepG2 cell line = experiment: Cytotoxicity CellTiter 96, HepG2; assay type: cell-based, human; conditions: Homo sapiens, HepG2, 24 h, 24 h incubation; ^c compound precipitated in the testing medium; ^d over the limit of tested concentrations
[15] = system: Trichophyton interdigitale CCM 8377, ATCC 9533; experiment: Antifungal microdilution broth MIC, TI; conditions: Trichophyton interdigitale
[16] = system: Aspergillus flavus CCM 8363; experiment: Antifungal microdilution broth MIC, AFla
[17] = system: Acinetobacter baumannii DSM 30007, ATCC 19606; experiment: Antibacterial microdilution broth MIC, ACI; assay type: cell-based
[18] = system: Mycobacterium tuberculosis H37Ra; experiment: Antimycobacterial microdilution broth MIC (resazurin), Mtb H37Ra; assay type: cell-based; conditions: for MIC: Mycobacterium tuberculosis, H37RA, read-out: MIC Mtb H37Ra
[19] = system: Staphylococcus aureus subsp. aureus CCM 4750, ATCC 43300 (MRSA); experiment: Antibacterial microdilution broth MIC, MRSA; assay type: cell-based; conditions: Staphylococcus aureus
[20] = ATCC204305, 24 h, read-out: MIC AF 24h
[21] = ATCC204305, 48 h, read-out: MIC AF 48h
[22] = CCM8077, 24 h, read-out: MIC LC 24h
[23] = CCM8077, 48 h, read-out: MIC LC 48h
[24] = CCM8363, 24 h, read-out: MIC AFla 24h
[25] = CCM8363, 48 h, read-out: MIC AFla 48h

Row | SMILES | MIC ([1]; 24 h, read-out: MIC EF 24h) | MIC ([1]; 48 h, read-out: MIC EF 48h) | MIC ([2]; 24 h, read-out: MIC CA 24h) | MIC ([2]; 48 h, read-out: MIC CA 48h) | MIC ([3]; 24 h, read-out: MIC CP 24h) | MIC ([3]; 48 h, read-out: MIC CP 48h) | MIC [4, 20] | MIC [4, 21] | MIC ([5]; 24 h, read-out: MIC CK 24h) | MIC ([5]; 48 h, read-out: MIC CK 48h) | MIC [6] | MIC ([7]; 24 h, read-out: MIC SA 24h) | MIC ([7]; 48 h, read-out: MIC SA 48h) | MIC ([8]; 24 h, read-out: MIC SE 24h) | MIC ([8]; 48 h, read-out: MIC SE 48h) | MIC [9, 22] | MIC [9, 23] | MIC ([10]; 24 h, read-out: MIC PA 24h) | MIC ([10]; 48 h, read-out: MIC PA 48h) | MIC ([11]; 24 h, read-out: MIC CT 24h) | other results
1 | COc1cccc(CC(=O)Nc2ccc(Cl)cn2)c1 [Compound 8, 2-(3-methoxyphenyl)-N-(5-chloropyridin-2-yl)acetamide] | > 500 µM | > 500 µM | > 500 µM | > 500 µM | > 500 µM | > 500 µM | > 500 µM | > 500 µM | 500 µM (≈ 138 µg/mL) | 500 µM (≈ 138 µg/mL) | > 500 µg/mL | 500 µM (≈ 138 µg/mL) | > 500 µM | 250 µM (≈ 69.2 µg/mL) | > 500 µM | 500 µM (≈ 138 µg/mL) | 500 µM (≈ 138 µg/mL) | > 500 µM | > 500 µM | > 500 µM | MIC ([11]; 48 h, read-out: MIC CT 48h): > 500 µM; MIC ([12]; 24 h, read-out: MIC EC 24h): > 500 µM; MIC ([12]; 48 h, read-out: MIC EC 48h): > 500 µM; MIC [13]: > 500 µg/mL; MIC KP 24h [14]: > 500 µM; MIC KP 48h [14]: > 500 µM; IC50 (HepG2 cell line): 158 µM; MIC ([15]; 72 h, read-out: MIC TI 72h): 500 µM (≈ 138 µg/mL); MIC ([15]; 120 h, read-out: MIC TI 120h): 500 µM (≈ 138 µg/mL); MIC [16, 24]: 500 µM (≈ 138 µg/mL); MIC [16, 25]: 500 µM (≈ 138 µg/mL); MIC ([17]; 24 h, read-out: MIC ACI 24h): > 500 µM; MIC ([17]; 48 h, read-out: MIC ACI 48h): > 500 µM; MIC ([18]; Calculated from MIC (μg/mL)): 113 µM; MIC [18]: 31.2 µg/mL; SI (selectivity index) ([18]; SI = HepG2 IC50 (μM)/MIC MtbH37Ra (μM), calculated for compounds with MIC ≤ 31.25 μg/mL): 1.4; MIC ([19]; 24 h, read-out: MIC MRSA 24h): > 500 µM; MIC ([19]; 48 h, read-out: MIC MRSA 48h): > 500 µM
2 | COc1cccc(CC(=O)Nc2cccc(Cl)n2)c1 [Compound 9, 2-(3-methoxyphenyl)-N-(6-chloropyridin-2-yl)acetamide] | > 500 µM | > 500 µM | 500 µM (≈ 138 µg/mL) | 500 µM (≈ 138 µg/mL) | 500 µM (≈ 138 µg/mL) | 500 µM (≈ 138 µg/mL) | 500 µM (≈ 138 µg/mL) | > 500 µM | 500 µM (≈ 138 µg/mL) | 500 µM (≈ 138 µg/mL) | 125 µg/mL (≈ 452 µM) | > 500 µM | > 500 µM | > 500 µM | > 500 µM | 500 µM (≈ 138 µg/mL) | > 500 µM | > 500 µM | > 500 µM | 500 µM (≈ 138 µg/mL) | MIC ([11]; 48 h, read-out: MIC CT 48h): 500 µM (≈ 138 µg/mL); MIC ([12]; 24 h, read-out: MIC EC 24h): > 500 µM; MIC ([12]; 48 h, read-out: MIC EC 48h): > 500 µM; MIC [13]: > 500 µg/mL; MIC KP 24h [14]: > 500 µM; MIC KP 48h [14]: > 500 µM; IC50 (HepG2 cell line): 638 µM; MIC ([15]; 72 h, read-out: MIC TI 72h): 500 µM (≈ 138 µg/mL); MIC ([15]; 120 h, read-out: MIC TI 120h): > 500 µM; MIC [16, 24]: 500 µM (≈ 138 µg/mL); MIC [16, 25]: > 500 µM; MIC ([17]; 24 h, read-out: MIC ACI 24h): > 500 µM; MIC ([17]; 48 h, read-out: MIC ACI 48h): > 500 µM; MIC ([18]; Calculated from MIC (μg/mL)): 900 µM; MIC [18]: 250 µg/mL; MIC ([19]; 24 h, read-out: MIC MRSA 24h): > 500 µM; MIC ([19]; 48 h, read-out: MIC MRSA 48h): > 500 µM
3 | COc1ccc(CC(=O)Nc2ccccn2)cc1 [Compound 10, 2-(4-methoxyphenyl)-N-(pyridin-2-yl)acetamide] | > 500 µM | > 500 µM | > 500 µM | > 500 µM | > 500 µM | > 500 µM | > 500 µM | > 500 µM | 500 µM (≈ 121 µg/mL) | 500 µM (≈ 121 µg/mL) | 62.5 µg/mL (≈ 258 µM) | > 500 µM | > 500 µM | 500 µM (≈ 121 µg/mL) | 500 µM (≈ 121 µg/mL) | > 500 µM | > 500 µM | > 500 µM | > 500 µM | > 500 µM | MIC ([11]; 48 h, read-out: MIC CT 48h): > 500 µM; MIC ([12]; 24 h, read-out: MIC EC 24h): > 500 µM; MIC ([12]; 48 h, read-out: MIC EC 48h): > 500 µM; MIC [13]: 250 µg/mL (≈ 1030 µM); MIC KP 24h [14]: > 500 µM; MIC KP 48h [14]: > 500 µM; IC50 (HepG2 cell line): > 1000 µM; MIC ([15]; 72 h, read-out: MIC TI 72h): 500 µM (≈ 121 µg/mL); MIC ([15]; 120 h, read-out: MIC TI 120h): 500 µM (≈ 121 µg/mL); MIC [16, 24]: > 500 µM; MIC [16, 25]: > 500 µM; MIC ([17]; 24 h, read-out: MIC ACI 24h): > 500 µM; MIC ([17]; 48 h, read-out: MIC ACI 48h): > 500 µM; MIC ([18]; Calculated from MIC (μg/mL)): 516 µM; MIC [18]: 125 µg/mL; MIC ([19]; 24 h, read-out: MIC MRSA 24h): > 500 µM; MIC ([19]; 48 h, read-out: MIC MRSA 48h): > 500 µM
